Data set [1] concerns BEAS-2B. In words: Proliferation test with GABA receptor agonists and GABA-A antagonist (WST-8). The settings on record: 0.1% FBS, 72 hours. Format: cell-based, human. As to the method:
[…] […] Next, 10 μl per well of GABA (GABA-A and GABA-B receptor agonist) and homotaurine (GABA-A agonist) were added. A proliferation test (WST-8 assay) was performed after 72 hours.
[…] […] 10 μl per well of EP solution was added. A proliferation test (WST-8 assay) was performed after 72 hours.

Data set [2] deals with BEAS-2B. Kind of data set: Proliferative effects of EP and its metabolic derivatives (WST-8). The format is cell-based, human.
Data set [3] has as its system BEAS-2B. In words: Cell toxicity of H2O2 after EP pre-treatment (WST-8 assay). Format: cell-based, human. Conditions: Homo sapiens, BEAS-2B, read-out: EC50 (50% cell death concentration of H2O2). As for the experimental part:
Cells of the normal airway epithelial cell line BEAS-2B were seeded at a density of 1×10^5/cm^2 on a 96-well plate, and after 24 hours the medium was replaced with 0.5% FBS RPMI 1640 containing EP at final concentrations of 0, 250 and 500 μM. 24 hours after medium replacement the medium was replaced with 0.5% FBS RPMI-1640, and serially diluted H2O2 was administered (n=4). 24 hours after H2O2 administration a cell toxicity test WST-8 assay (Cell Counting Kit-8, Dojindo) was performed. For the data analysis, the 50% cell death concentration EC50 was calculated with GraphPad Prism 5 statistical analysis software.

The subject of data set [4] is BEAS-2B. Kind of data set: DNA microarray of H2O2-treated samples and correlational analysis with EP. Format: cell-based, human. The settings on record: H2O2 125 μM, 6 hours. As to the method: The data of Example 13 were used as the EP gene expression data. Cell preparation and H2O2 administration were performed as in Test 13. Samples that had been treated for 6 hours with H2O2 at a final concentration of 125 μM were used as samples for gene expression analysis by DNA microarray.

Data set [5] concerns HHDPC cells. In words: WST-8 proliferation test, primary normal human hair dermal papilla cells (HHDPC). The settings on record: high concentrations. As for the experimental part: HHDPC cells (Cosmo Bio) were seeded to 1×10^4 cells/cm^2 on a 96-well plate. Complete MSCM medium (500, ScienCell) was used as the medium. After 24 hours, the cells were washed gently with 200 μl per well of PBS, the medium was replaced with 90 μl per well of 0% FBS DMEM with 1 vol % of complete MSCM medium added thereto, and the cells were cultured for 24 hours. After culture, 10 μl per well of EP solution was added, and a proliferation test (WST-8 assay) was performed 6 days after EP administration. The WST-8 assay was performed as in Example 1. The same test was performed using minoxidil, which has a clinical hair growth effect.

The subject of data set [6] is BEAS-2B. Kind of data set: Permeability test, 4-kilodalton fluorescent dextran through BEAS-2B cell sheet (Papp). Format: cell-based, human. Conditions: Dex 1 μM, with or without EP 1 mM. As for the experimental part:
Cells of the established normal human airway epithelial cell line BEAS-2B were seeded to 1×10^5 cells/cm^2 on a cell culture insert (353104, BD Falcon) (FIG. 14). 10% FBS RPMI-1640 was used as the medium. The amount of medium was 200 μl on the insert side and 750 μl on the well side. Beginning the next day, substitution/medium replacement was performed once a day with 1% FBS RPMI-1640 prepared with the following 4 reagent conditions, and transepithelial electrical resistance (TER) was measured with MilliCell (Millipore). • Condition 1: Control • Condition 2: EP 1 mM • Condition 3: Dexamethasone 1 μM (dexamethasone (Dex): positive control substance known to enhance barrier function) • Condition 4: EP 1 mM and Dex 1 μM
7 days after cell seeding a permeability test was performed as follows.
A 4-kilodalton fluorescent dextran molecule (Sigma) was added to the cell culture insert to a concentration of 0.1 mg/ml, 20 μl of the medium on the well side was removed after 1 hour, and the amount of permeating fluorescent dextran was estimated from the fluorescent strength at each concentration. The permeation rate Papp of a substance from the insert side to the well side is normally determined by the following formula.
Papp=(volume of medium on well side/insert area×initial insert concentration)×(altered concentration on well side/elapsed time)

Where two headings read alike, the source gives them in different places.

Turning to `C[N+]1(C)CCc2cc3c(cc2[C@H]1[C@@H]1OC(=O)c2c1ccc1c2OCO1)OCO3.[Cl-]` [BM, (−)-Bicuculline Methochloride], in data set [1], the “inhibition of the proliferative action of EP” value is reported as “not inhibited”. With `C[N+](C)(C)CCOP(=O)(O)OP(=O)([O-])OC[C@H]1O[C@@H](n2ccc(N)nc2=O)[C@H](O)[C@@H]1O` [CDP-choline], the “animal cell proliferation without serum or growth factors” value in data set [2] is given as “not obtained”. For `NCCCC(=O)O` [GABA], in data set [1], the proliferative action entry is “neither the GABA-A and GABA-B receptor agonist GABA nor the EP structural analog and GABA-A receptor agonist homotaurine exhibited any statistically significant proliferative action”. With `OO` [H2O2, hydrogen peroxide, reference compound], the EC50 in data set [3] (cells pre-treated with 250 uM EP) was determined as 190 µM; in data set [3] (cells pre-treated with 500 uM EP), 177 µM; in data set [3] (control, no EP pre-treatment, 24 h) it was 128 µM. Also, the “expression of apoptosis-associated genes reduced by EP (30 probes)” value in data set [4] is recorded as “generally had their expression increased”. Further, the “expression of cytokines and chemokines” value in data set [4] was “induced expression of cytokines and chemokines”.

For the compound `Nc1cc(N2CCCCC2)nc(N)[n+]1[O-]` [Minoxidil, minoxidil, reference compound], the cell toxicity result in data set [5] is reported as “toxic above that range”. For `C[C@@H]1C[C@H]2[C@@H]3CCC4=CC(=O)C=C[C@]4(C)[C@@]3(F)[C@@H](O)C[C@]2(C)[C@@]1(O)C(=O)CO` [dexamethasone, reference compound], the “drop in Papp” value in data set [6] is on record as “no rise in TER or drop in Papp”. In the case of `OCCNCCO` [diethanolamine], in data set [2], the “animal cell proliferation without serum or growth factors” value is on record as “not obtained”. On to `NCCO` [ethanolamine], for which the “animal cell proliferation without serum or growth factors” value in data set [2] was “not obtained”. Further, the proliferative action result in data set [2] (0.1% FBS, 72 hours) is “much weaker than that of EP”. For `NCCCS(=O)(=O)O` [homotaurine], the proliferative action result in data set [1] is “neither the GABA-A and GABA-B receptor agonist GABA nor the EP structural analog and GABA-A receptor agonist homotaurine exhibited any statistically significant proliferative action”. Regarding `C[N+](C)(C)CCOP(=O)(O)O` [phosphorylcholine], in data set [2], the “animal cell proliferation without serum or growth factors” value is listed as “not obtained”.

These data come from patent publication US20150164762A1, “USE OF ETHANOLAMINE PHOSPHATE” (priority 2012, published 2015).
